The text below walks through data of PubChem BioAssay AID1259407 (Chemical Carcinogenesis Research Information System (CCRIS), 2018).

The structures appear in SMILES notation. The source made the active and inactive calls. The rule behind the calls is not given here.

The subject of the series is CCRIS mutagenicity, Ames/micronucleus/aberration tests. In words: CCRIS mutagenicity studies.
Setting [1] is: Test System: AMES SALMONELLA TYPHIMURIUM, Strain/Indicator: TA98, Metabolic Activation: NONE, Method: PREINCUBATION
Setting [2] is: Test System: AMES SALMONELLA TYPHIMURIUM, Strain/Indicator: TA100, Metabolic Activation: NONE, Method: PREINCUBATION
The mark [3] stands for this setting: Test System: AMES SALMONELLA TYPHIMURIUM, Strain/Indicator: TA1535, Metabolic Activation: NONE, Method: PREINCUBATION
[4] abbreviates: Test System: AMES SALMONELLA TYPHIMURIUM, Strain/Indicator: TA1537, Metabolic Activation: NONE, Method: PREINCUBATION

`COC(=O)CC(C)=O`: the mutagenic call is “inactive; negative” (End Point: In vitro chromosomal aberrations, Test System: Chinese hamster lung (CHL/IU) cells, Metabolic Activation: None); “active; positive (ploidy)” (End Point: In vitro chromosomal aberrations, Test System: Chinese hamster lung (CHL/IU) cells, Metabolic Activation: Rat, Liver, S9, Phenobarbital and 5,6-benzoflavone); “inactive; negative” under setting [1]; “inactive; negative” (Test System: AMES SALMONELLA TYPHIMURIUM, Strain/Indicator: TA98, Metabolic Activation: RAT LIVER S-9, PHENOBARBITAL AND BETA-NAPHTHOFLAVONE, Method: PREINCUBATION); “inactive; negative” (Test System: AMES SALMONELLA TYPHIMURIUM, Strain/Indicator: TA98, Metabolic Activation: RAT, LIVER, S-9, KC 500, Method: PREINCUBATION); “inactive; negative” under setting [2]. The mutagenic call was “inactive; negative” (Test System: AMES SALMONELLA TYPHIMURIUM, Strain/Indicator: TA100, Metabolic Activation: RAT LIVER S-9, PHENOBARBITAL AND BETA-NAPHTHOFLAVONE, Method: PREINCUBATION); “inactive; negative” (Test System: AMES SALMONELLA TYPHIMURIUM, Strain/Indicator: TA100, Metabolic Activation: RAT, LIVER, S-9, KC 500, Method: PREINCUBATION); “inactive; negative” under setting [3]; “inactive; negative” (Test System: AMES SALMONELLA TYPHIMURIUM, Strain/Indicator: TA1535, Metabolic Activation: RAT LIVER S-9, PHENOBARBITAL AND BETA-NAPHTHOFLAVONE, Method: PREINCUBATION); “inactive; negative” (Test System: AMES SALMONELLA TYPHIMURIUM, Strain/Indicator: TA1535, Metabolic Activation: RAT, LIVER, S-9, KC 500, Method: PREINCUBATION); “inactive; negative” under setting [4]. In addition, the mutagenic call is, setting by setting: (Test System: AMES SALMONELLA TYPHIMURIUM, Strain/Indicator: TA1537, Metabolic Activation: RAT LIVER S-9, PHENOBARBITAL AND BETA-NAPHTHOFLAVONE, Method: PREINCUBATION) “inactive; negative”; (Test System: AMES SALMONELLA TYPHIMURIUM, Strain/Indicator: TA1537, Metabolic Activation: RAT, LIVER, S-9, KC 500, Method: PREINCUBATION) “inactive; negative”; (Test System: AMES SALMONELLA TYPHIMURIUM, Strain/Indicator: TA1538, Metabolic Activation: NONE, Method: PREINCUBATION) “inactive; negative”; (Test System: AMES SALMONELLA TYPHIMURIUM, Strain/Indicator: TA1538, Metabolic Activation: RAT, LIVER, S-9, KC 500, Method: PREINCUBATION) “inactive; negative”; (Test System: E. COLI, Strain/Indicator: WP2 UVRA, Metabolic Activation: NONE, Method: PREINCUBATION) “inactive; negative”; (Test System: E. COLI, Strain/Indicator: WP2 UVRA, Metabolic Activation: RAT, LIVER, S-9, KC 500, Method: PREINCUBATION) “inactive; negative”. Moreover, the mutagenic call (Test System: E.COLI, Strain/Indicator: WP2UVRA/PKM101, Metabolic Activation: NONE, Method: PREINCUBATION) was “inactive; negative” and the mutagenic call (Test System: E.COLI, Strain/Indicator: WP2UVRA/PKM101, Metabolic Activation: RAT LIVER S-9, PHENOBARBITAL AND BETA-NAPHTHOFLAVONE, Method: PREINCUBATION) was “inactive; negative”.

Turning to `Cc1cc2c(O)cccc2c2cc3ccccc3cc12`, the mutagenic call (Test System: AMES SALMONELLA TYPHIMURIUM, Strain/Indicator: TA100, Metabolic Activation: RAT, LIVER, S-9, AROCLOR 1254, Method: PREINCUBATION) is “active; positive”.

As to `O=C(OC[C@@H]1O[C@H](OC(=O)c2cc(O)c(O)c(OC(=O)c3cc(O)c(O)c(O)c3)c2)[C@@H](OC(=O)c2cc(O)c(O)c(OC(=O)c3cc(O)c(O)c(O)c3)c2)[C@H](OC(=O)c2cc(O)c(O)c(OC(=O)c3cc(O)c(O)c(O)c3)c2)[C@H]1OC(=O)c1cc(O)c(O)c(OC(=O)c2cc(O)c(O)c(O)c2)c1)c1cc(O)c(O)c(OC(=O)c2cc(O)c(O)c(O)c2)c1`, the mutagenic call runs as follows: under setting [1], “inactive; negative”; (Test System: AMES SALMONELLA TYPHIMURIUM, Strain/Indicator: TA98, Metabolic Activation: RAT LIVER S-9, Method: PREINCUBATION) “inactive; negative”; under setting [2], “inactive; negative”; (Test System: AMES SALMONELLA TYPHIMURIUM, Strain/Indicator: TA100, Metabolic Activation: RAT LIVER S-9, Method: PREINCUBATION) “inactive; negative”; (Test System: AMES SALMONELLA TYPHIMURIUM, Strain/Indicator: TA102, Metabolic Activation: RAT LIVER S-9, PHENOBARBITAL AND 5,6-BENZOFLAVONE, Method: STANDARD PLATE) “inactive; negative”; (Test System: AMES SALMONELLA TYPHIMURIUM, Strain/Indicator: TA2638, Metabolic Activation: RAT LIVER S-9, PHENOBARBITAL AND 5,6-BENZOFLAVONE, Method: STANDARD PLATE) “inactive; negative”. Besides, the mutagenic call reads like this: (Test System: E. COLI, Strain/Indicator: WP2 (PKM101), Metabolic Activation: RAT LIVER S-9, PHENOBARBITAL AND 5,6-BENZOFLAVONE, Method: STANDARD PLATE) “inactive; negative”; (Test System: E. COLI, Strain/Indicator: WP2 UVRA (PKM101), Metabolic Activation: RAT LIVER S-9, PHENOBARBITAL AND 5,6-BENZOFLAVONE, Method: STANDARD PLATE) “inactive; negative”.

As to `O=[N+]([O-])c1ccccc1CCO`, the mutagenic call (Test System: AMES SALMONELLA TYPHIMURIUM, Strain/Indicator: TA98, Metabolic Activation: HAMSTER, LIVER, S-9, AROCLOR 1254 (10%), Method: PREINCUBATION) is “inactive; negative”; the mutagenic call (Test System: AMES SALMONELLA TYPHIMURIUM, Strain/Indicator: TA98, Metabolic Activation: HAMSTER, LIVER, S-9, AROCLOR 1254 (30%), Method: PREINCUBATION) is “inactive; negative”; the mutagenic call under setting [1] was “inactive; negative”; the mutagenic call (Test System: AMES SALMONELLA TYPHIMURIUM, Strain/Indicator: TA98, Metabolic Activation: RAT, LIVER, S-9, AROCLOR 1254 (10%), Method: PREINCUBATION) is “inactive; negative”; the mutagenic call (Test System: AMES SALMONELLA TYPHIMURIUM, Strain/Indicator: TA98, Metabolic Activation: RAT, LIVER, S-9, AROCLOR 1254 (30%), Method: PREINCUBATION) was “inactive; negative”; the mutagenic call (Test System: AMES SALMONELLA TYPHIMURIUM, Strain/Indicator: TA100, Metabolic Activation: HAMSTER, LIVER, S-9, AROCLOR 1254 (10%), Method: PREINCUBATION) is “inactive; negative”. The mutagenic call runs as follows: (Test System: AMES SALMONELLA TYPHIMURIUM, Strain/Indicator: TA100, Metabolic Activation: HAMSTER, LIVER, S-9, AROCLOR 1254 (30%), Method: PREINCUBATION) “active; positive”; under setting [2], “inactive; negative”; (Test System: AMES SALMONELLA TYPHIMURIUM, Strain/Indicator: TA100, Metabolic Activation: RAT, LIVER, S-9, AROCLOR 1254 (5%), Method: PREINCUBATION) “inactive; negative”; (Test System: AMES SALMONELLA TYPHIMURIUM, Strain/Indicator: TA100, Metabolic Activation: RAT, LIVER, S-9, AROCLOR 1254 (10%), Method: PREINCUBATION) “inactive; negative”; (Test System: AMES SALMONELLA TYPHIMURIUM, Strain/Indicator: TA100, Metabolic Activation: RAT, LIVER, S-9, AROCLOR 1254 (30%), Method: PREINCUBATION) “inactive; negative”; (Test System: AMES SALMONELLA TYPHIMURIUM, Strain/Indicator: TA1535, Metabolic Activation: HAMSTER, LIVER, S-9, AROCLOR 1254 (10%), Method: PREINCUBATION) “inactive; negative”. In addition, the mutagenic call is, setting by setting: under setting [3], “inactive; negative”; (Test System: AMES SALMONELLA TYPHIMURIUM, Strain/Indicator: TA1535, Metabolic Activation: RAT, LIVER, S-9, AROCLOR 1254 (10%), Method: PREINCUBATION) “inactive; negative”; (Test System: AMES SALMONELLA TYPHIMURIUM, Strain/Indicator: TA1537, Metabolic Activation: HAMSTER, LIVER, S-9, AROCLOR 1254 (10%), Method: PREINCUBATION) “inactive; negative”; under setting [4], “inactive; negative”; (Test System: AMES SALMONELLA TYPHIMURIUM, Strain/Indicator: TA1537, Metabolic Activation: RAT, LIVER, S-9, AROCLOR 1254 (10%), Method: PREINCUBATION) “inactive; negative”.
